Source: ChEMBL document CHEMBL4004845, “Synthesis and trypanocidal activity of a library of 4-substituted 2-(1H-pyrrolo[3,2-c]pyridin-2-yl)propan-2-ols” (Eur J Med Chem, 2017)

Tests used:
[1] = tested on: Trypanosoma brucei brucei; experiment: Antitrypanosomal activity against Trypanosoma brucei brucei Lister 427 at 18 hrs post dose by resazurin-based assay; format: functional; conditions: Lister 427, 18 h
[2] = tested on: Trypanosoma brucei brucei; experiment: Antitrypanosomal activity against Trypanosoma brucei brucei Lister 427 at 70 hrs post dose by resazurin-based assay; format: functional
[3] = Cytotoxicity against human HepG2 cells after 48 hrs by Cell Titer Glo assay; format: cell-based; conditions: read-out: pTC50 (converted)
[4] = Cytotoxicity against human U2OS cells; format: cell-based
Trypanosoma cruzi [5] = experiment: Antitrypanosomal activity against Trypanosoma cruzi Y amastigote forms infected in human U2OS cells after 96 hrs by Draq5 staining-based high content analysis; format: functional, cell-based
[6] = Selectivity index, ratio of CC50 for human U2OS cells to EC50 for Trypanosoma cruzi Y amastigote forms infected in human U2OS cells; format: toxicity, cell-based; conditions: read-out: Ratio CC50/EC50
Trypanosoma cruzi [7] = experiment: Antitrypanosomal activity against Trypanosoma cruzi Y amastigote forms infected in human U2OS cells after 96 hrs by Draq5 staining-based high content analysis relative to control; format: functional

Compound	EC50 [1] [nM]	pEC50 [2]	EC50 (Trypanosoma cruzi [5]) [µM]	CC50 at 48 h [3] [µM]	CC50 [4] [µM]	selectivity ratio [6]	Emax (Trypanosoma cruzi [7]) [%]
CN(C)Cc1ccc(-c2cc3c(-c4cnn(C)c4)ccnc3[nH]2)cc1	≤ 1000	6.16 to 9.17	–	14.5 to 100	–	–	–
CS(=O)(=O)Nc1ccc(-c2c(-c3cccnc3)oc3ncnc(N)c23)cc1	≤ 1000	6.16 to 9.17	–	14.5 to 100	–	–	–
Cn1cc(-c2cnc3[nH]cc(-c4cccc(C#N)c4)c3c2)cn1	–	–	–	14.5 to 100	–	–	–
CC(C)(O)c1cc2c(-c3ccc(C#N)cc3)nccc2[nH]1	–	–	–	–	–	–	30.6
CC(C)(O)c1cc2c(-c3ccccc3CO)nccc2[nH]1	–	–	–	–	–	–	30.1
CC(C)(O)c1cc2c(Cl)nccc2[nH]1	–	–	70.8	–	15.5	0.2	106
Cc1occc1-c1ncc(O[C@H](CN)c2ccccc2)cc1-c1c[nH]c2ncccc12	≤ 1000	6.16 to 9.17	–	14.5 to 100	–	–	–
CC(C)(O)c1cc2c(-c3cc(C(F)(F)F)cc(C(F)(F)F)c3)nccc2[nH]1	–	–	24.3	–	59.8	2.5	72.2
O=C(Nc1ccc(-c2ccnc3[nH]ccc23)s1)C1(Cc2ccccc2)CCCNC1 (stereo not drawn)	≤ 1000	6.16 to 9.17	–	14.5 to 100	–	–	–
CN(C)Cc1ccc(-c2[nH]c3ncc(C#N)cc3c2-c2ccccc2)cc1	≤ 1000	6.16 to 9.17	–	14.5 to 100	–	–	–
CC[C@@H]1COCCN1c1cc(-c2cc(OC)c3c(N)n[nH]c3c2)nc(N)n1	≤ 1000	6.16 to 9.17	–	14.5 to 100	–	–	–
OCCn1c(CNCCCNc2nc3ccccc3[nH]2)cc2c(Cl)cc(Cl)cc21	≤ 1000	6.16 to 9.17	–	14.5 to 100	–	–	–
O=C(Cn1ccnc1[N+](=O)[O-])NCc1ccccc1 [BENZNIDAZOLE]	–	–	3.6	–	–	> 235	102
CC(C)=Cc1cccc2c1/C(=N/Nc1ccc(S(N)(=O)=O)cc1)C(=O)N2 [GW396574X]	≤ 1000	6.16 to 9.17	–	14.5 to 100	–	–	–

More lines, main results first:

EC50 [1] [nM]	pEC50 [2]	EC50 (Trypanosoma cruzi [5]) [µM]	Compound	CC50 at 48 h [3] [µM]	CC50 [4] [µM]	selectivity ratio [6]	Emax (Trypanosoma cruzi [7]) [%]
–	–	17	CC(C)(C)c1ccc(-c2nccc3[nH]c(C(C)(C)O)cc23)cc1	–	35.3	1.3	110
–	–	6.5	CC(C)(O)c1cc2c(-c3ccccc3)nccc2[nH]1	–	22.2	3.4	106
–	–	4.5	CC(C)(O)c1cc2c(-c3ccc(NC(=O)OCc4ccccc4)cc3)nccc2[nH]1	–	5.5	1.22	99.4
–	–	106	CC(C)(O)c1cc2c(-c3ccsc3)nccc2[nH]1	–	199	1.6	72.8
–	–	3.8	CC(C)(O)c1cc2c(-c3ccc(-c4ccccc4)c(F)c3)nccc2[nH]1	–	9.1	2.4	75.7
–	–	53.9	COc1ccccc1-c1nccc2[nH]c(C(C)(C)O)cc12	–	–	> 3.7	56.6
–	–	20.1	CC(C)(O)c1cc2c(-c3ccc4ccccc4c3)nccc2[nH]1	–	22.5	1.1	102
–	–	45.8	CC(C)(O)c1cc2c(-c3ccc(F)cc3)nccc2[nH]1	–	93.6	2	75.8
–	–	137	CC(=O)c1ccc(-c2nccc3[nH]c(C(C)(C)O)cc23)cc1	–	–	> 1.4	60.9
–	–	52.3	Cc1cccc(-c2nccc3[nH]c(C(C)(C)O)cc23)c1	–	121	1.7	101
–	–	34.6	Cc1ccc(-c2nccc3[nH]c(C(C)(C)O)cc23)cc1	–	38.5	1.1	86
–	–	40.9	CC(C)(O)c1cc2c(-c3ccc(C(F)(F)F)cc3)nccc2[nH]1	–	72.3	1.5	102
–	–	9.6	CCSc1ccc(-c2nccc3[nH]c(C(C)(C)O)cc23)cc1	–	17.2	1.8	107
